Data on nine compounds can be found in BindingDB's records for doi:10.1021/bi100299r (Riken Systems and Structural Biology Center, 2010).

The test addresses Lysine-specific histone demethylase 1A (Homo sapiens, UniProt O60341). Description: LSD1 Inhibition Assay. From the text:
The kinetic inhibition parameters of LSD1 demethylase inhibition were obtained using the peroxidase-coupled reaction method.

pIC50: −log10 of the molar value.

As a reminder, the pIC50 is the negative decadic logarithm of the IC50, by convention in mol/L. Low values mean a high IC50, high ones a low IC50.

`NCc1cccc(COc2c(F)cc(F)cc2C2CC2N)c1` (centres undefined) [S2107] gave a pIC50 of 5.39. `NC1CC1c1cc(F)ccc1-c1ccccc1` (centres undefined) [S1310] gave a pIC50 of less than 4.30. Consider `COc1cccc(COc2c(F)cc(F)cc2C2CC2N)c1` (centres undefined) [S2206], for which the pIC50 was less than 4.52. For `NC1CC1c1ccc(OCc2ccccc2)cc1OCc1ccccc1` (centres undefined) [S1601] the value was less than 4.52; for `NC1CC1c1cc(Cl)ccc1OCc1ccccc1` (centres undefined) [S1401], less than 4.52; for `CC(C)COc1c(Cl)cc(Cl)cc1C1CC1N` (centres undefined) [S1502], less than 4.30.

Consider `CC(C)COc1ccc(Cl)cc1C1CC1N` (centres undefined), for which the pIC50 is 4.83. The figure for `CC(C)COc1ccc(C2CC2N)c(OCC(C)C)c1` (centres undefined) [S1602] is less than 4.52. Compound `NC1CC1c1ccc(OCC2CCCCC2)cc1OCC1CCCCC1` (centres undefined) [S1603] had a pIC50 of less than 4.52.
